Literature values in patent US20250000865A1, “COMPOUND FOR REDUCING URIC ACID LEVELS” (NEWSOARA BIOPHARMA CO., LTD., priority 2021, published 2025).

Conditions: cited from earlier work

What does the source list for `CCc1oc2ccccc2c1C(=O)c1cc(Br)c(O)c(Br)c1` [benbromarone, Benzbromarone]?
sUA target level reached (after long-term treatment): < 6 mg/dL; side effects (in vivo): hepatotoxicity and acute liver failure
